Test results published in patent US9079913B2, “Spiro-oxindole MDM2 antagonists” (The Regents of the University of Michigan, priority 2009, dated 2015).
Values joined by “and” are separate entries in the source; they are usually repeats but may differ in a detail not shown here. Equal entries are not always repeated.

Experiments:
SJSA-1 xenograft tumors = assay: In vivo efficacy, SJSA-1 xenograft model (tumor volume); design: species or system C.B-17 SCID mice; settings: PO 300 mg/kg
Description: SJSA-1 tumor cells were harvested with Trypsin (0.05%)-EDTA (0.53 mM) (GIBCO™, Invitrogen Corp.), growth medium added and cells placed on ice. A cell sample was mixed 1:1 with Trypan Blue (GIBCO™, Invitrogen Corp.) and counted on a hemocytometer to determine the number of live/dead cells. Cells were washed once with 1×PBS (GIBCO™, Invitrogen Corp.) and resuspended in PBS. For Matrigel injections, after washing in PBS, cells are resuspended in an ice cold mixture of 1:1 PBS and Matrigel (BD Biosciences, Invitrogen Corp.) for a final Matrigel protein concentration of 5 mg/ml. SJSA-1 tumors were inoculated into C.B-17 SCID mice at 5×10^6 cells in 0.1 ml with Matrigel. Cells were injected s.c. into the flank region of each mouse using a 27 gauge needle.
The size of tumors growing in the mice was measured in two dimensions using calipers. Tumor volume (mm^3)=(A×B2)/2 where A and B are the tumor length and width (in mm), respectively. During treatment, tumor volume and body weight was measured three times a week. […] Mice were kept for an additional 60 days for further observation of tumor growth and toxicity.
Mice with tumors within acceptable size range were randomized into treatment groups of 8 mice for experimental compounds and 10 mice for the Control group. Experimental compounds were given orally, once per day for 2-3 weeks.

[1] = In vitro microsomal stability, rat; type: in vitro ADME; settings: for Microsomal stability, % remaining: Rat microsomes
[2] = Microsomal stability study, negative control incubation; type: in vitro ADME
[3] = Pharmacokinetic studies in ICR mice; type: in vivo; design: Measured concentrations in the plasma samples: unit not given here; settings: for Measured concentrations in the plasma samples: single i.v. dose 10 mg/kg; for Plasma Concentrations: single p.o dose 50 mg/kg
[4] = Pharmacokinetic studies in Cynomolgus monkeys; type: in vivo; settings: for AUC(0-t): animals and MEAN
[5] = test system: LnCAP human xenograft tumors; settings: mice bearing LnCAP xenograft, oral 200-300 mg/kg daily or twice a day, 2 weeks; cited from earlier work
[6] = In vitro microsomal stability, dog; type: in vitro ADME; settings: for Microsomal stability, % remaining: Dog microsomes
[7] = male Cynomolgus monkeys, IV (10 mg/kg)
[8] = male Cynomolgus monkeys, IV (10 mg/kg), mean
[9] = male Cynomolgus monkeys, Oral (50 mg/kg)
[10] = male Cynomolgus monkeys, Oral (50 mg/kg), mean

MI-219
% Tumor Growth Inhib. T/C Control 750 mm^3 D27 (SJSA-1 xenograft tumors; Exp. No. 1, SJSA-1 xenograft, D27): 44.3%
% Tumor Growth Inhib. T/C Control 750 mm^3 D24 (SJSA-1 xenograft tumors; Exp. No. 2, SJSA-1 xenograft, D24): 30.1%
% Tumor Growth Inhib. T/C Control 750 mm^3 D29 (SJSA-1 xenograft tumors; Exp. No. 3, SJSA-1 xenograft, D29): 15.8%
Microsomal stability, % remaining ([1]; 0 min): 100.00%
Microsomal stability, % remaining ([1]; 5 min): 58.19%
Microsomal stability, % remaining ([1]; 10 min): 40.59%
Microsomal stability, % remaining ([1]; 15 min): 28.11%
Microsomal stability, % remaining ([1]; 30 min): 18.61%
Microsomal stability, % remaining ([1]; 45 min): 18.42%
Microsomal stability, % remaining ([1]; 60 min): 18.38%
% of compound remaining when incubated in rat liver microsomes ([1]; Table 16, 0 min): 100%
% of compound remaining when incubated in rat liver microsomes ([1]; Table 16, 4 min): 76.6%
% of compound remaining when incubated in rat liver microsomes ([1]; Table 16, 6 min): 64.3%
% of compound remaining when incubated in rat liver microsomes ([1]; Table 16, 10 min): 57.3%
% of compound remaining when incubated in rat liver microsomes ([1]; Table 16, 15 min): 51.9%
% of compound remaining when incubated in rat liver microsomes ([1]; Table 16, 30 min): 49.3%
% of compound remaining when incubated in rat liver microsomes ([1]; Table 17, 0 min): 100%
% of compound remaining when incubated in rat liver microsomes ([1]; Table 17, 4 min): 76.6%
% of compound remaining when incubated in rat liver microsomes ([1]; Table 17, 6 min): 64.3%
% of compound remaining when incubated in rat liver microsomes ([1]; Table 17, 10 min): 57.3%
% of compound remaining when incubated in rat liver microsomes ([1]; Table 17, 15 min): 51.9%
% of compound remaining when incubated in rat liver microsomes ([1]; Table 17, 30 min): 49.3%
microsomal stability (in words) ([1]; rat liver microsomes): metabolized fairly rapidly
Microsomal stability, % remaining ([2]; 0 min): 100.00%
Microsomal stability, % remaining ([2]; 5 min): 102.63%
Microsomal stability, % remaining ([2]; 10 min): 105.25%
Microsomal stability, % remaining ([2]; 15 min): 109.19%
Microsomal stability, % remaining ([2]; 30 min): 111.07%
Microsomal stability, % remaining ([2]; 45 min): 104.13%
Microsomal stability, % remaining ([2]; 60 min): 109.01%
AUC ([3]; 50 mg/kg oral dosing): 8469 ± 2381 ng·h/mL
AUC 0→9 h ([3]; p.o. 50 mg/kg): 26839 ng·h/mL and 16158 ng·h/mL and 14622 ng·h/mL
F ([3]; p.o. 50 mg/kg): 76.7% and 46.2% and 41.8% and 54.9 ± 19.0%
Kel ([3]; p.o. 50 mg/kg): 0.37 and 0.69
MRT ([3]; p.o. 50 mg/kg): 2.5813 h and 2.043 h and 2.2585 h
Tmax ([3]; p.o. 50 mg/kg): 2 h
Cmax ([3]; p.o. 50 mg/kg, groups and Mean ± SD): 10399 ng/mL and 9201 ng/mL and 9082 ng/mL and 9561 ± 728 ng/mL
AUC 0→9 h ([3]; p.o. 50 mg/kg, mean): 19206 ± 6655 ng·h/mL
Kel ([3]; p.o. 50 mg/kg, mean): 0.47 ± 0.19
MRT ([3]; p.o. 50 mg/kg, mean): 2.29 ± 0.27 h
Measured concentrations in the plasma samples ([3]; 5 min, groups and Mean ± SD, mean): 18041 ± 3799
Measured concentrations in the plasma samples ([3]; 15 min, mean): 5823 ± 701
Measured concentrations in the plasma samples ([3]; 30 min, mean): 3570 ± 871
Measured concentrations in the plasma samples ([3]; 45 min, mean): 1731 ± 429
Measured concentrations in the plasma samples ([3]; 1 h, mean): 1223 ± 141
Measured concentrations in the plasma samples ([3]; 24 h): BLQ
Plasma Concentrations ([3]; 15 min): 2927 ng/mL and 1700 ng/mL and 1503 ng/mL
Plasma Concentrations ([3]; 15 min, mean): 2043 ± 772 ng/mL
Plasma Concentrations ([3]; 2 h): 10399 ng/mL and 9201 ng/mL and 5808 ng/mL
Plasma Concentrations ([3]; 2 h, mean): 8469 ± 2381 ng/mL
Plasma Concentrations ([3]; 5 h): 522 ng/mL and 277 ng/mL and 334 ng/mL
Plasma Concentrations ([3]; 5 h, mean): 378 ± 128 ng/mL
Plasma Concentrations ([3]; 24 h): Beyond
oral bioavailability in monkeys (in words) ([4]; Cynomolgus Monkeys): orally bioavailable
Plasma Concentration ([4]; male Cynomolgus monkeys, IV 10 mg/kg, time point 0.083, animals and Mean): 15043.60 ng/mL and 18669.25 ng/mL
Plasma Concentration ([4]; male Cynomolgus monkeys, IV 10 mg/kg, time point 0.083, animals and Mean, mean): 16856.43 ng/mL
Plasma Concentration ([4]; male Cynomolgus monkeys, IV 10 mg/kg, time point 0.1): 18416.30 ng/mL
Plasma Concentration ([4]; male Cynomolgus monkeys, IV 10 mg/kg, time point 0.25): 4144.21 ng/mL and 4818.06 ng/mL and 6877.15 ng/mL
Plasma Concentration ([4]; male Cynomolgus monkeys, IV 10 mg/kg, time point 0.25, mean): 5279.81 ng/mL
Plasma Concentration ([4]; male Cynomolgus monkeys, IV 10 mg/kg, time point 0.5): 2188.67 ng/mL and 3577.55 ng/mL and 3536.46 ng/mL
Plasma Concentration ([4]; male Cynomolgus monkeys, IV 10 mg/kg, time point 0.5, mean): 3100.89 ng/mL
Plasma Concentration ([4]; male Cynomolgus monkeys, IV 10 mg/kg, time point 1): 1564.10 ng/mL and 2277.17 ng/mL and 2483.63 ng/mL
Plasma Concentration ([4]; male Cynomolgus monkeys, IV 10 mg/kg, time point 1, mean): 2108.30 ng/mL
Plasma Concentration ([4]; male Cynomolgus monkeys, IV 10 mg/kg, time point 2): 985.23 ng/mL and 1277.08 ng/mL and 1539.44 ng/mL
Plasma Concentration ([4]; male Cynomolgus monkeys, IV 10 mg/kg, time point 2, mean): 1267.25 ng/mL
Plasma Concentration ([4]; male Cynomolgus monkeys, IV 10 mg/kg, time point 3): 1230.40 ng/mL and 691.83 ng/mL and 834.00 ng/mL
Plasma Concentration ([4]; male Cynomolgus monkeys, IV 10 mg/kg, time point 3, mean): 918.74 ng/mL
Plasma Concentration ([4]; male Cynomolgus monkeys, IV 10 mg/kg, time point 4): 348.97 ng/mL and 582.63 ng/mL and 562.45 ng/mL
Plasma Concentration ([4]; male Cynomolgus monkeys, IV 10 mg/kg, time point 4, mean): 498.02 ng/mL
Plasma Concentration ([4]; male Cynomolgus monkeys, IV 10 mg/kg, time point 6): 246.12 ng/mL and 211.39 ng/mL and 324.99 ng/mL
Plasma Concentration ([4]; male Cynomolgus monkeys, IV 10 mg/kg, time point 6, mean): 260.83 ng/mL
Plasma Concentration ([4]; male Cynomolgus monkeys, IV 10 mg/kg, time point 8): 180.91 ng/mL and 115.94 ng/mL and 202.16 ng/mL
Plasma Concentration ([4]; male Cynomolgus monkeys, IV 10 mg/kg, time point 8, mean): 166.34 ng/mL
Plasma Concentration ([4]; male Cynomolgus monkeys, IV 10 mg/kg, time point 24): 5.91 ng/mL and 8.00 ng/mL and 8.34 ng/mL
Plasma Concentration ([4]; male Cynomolgus monkeys, IV 10 mg/kg, time point 24, mean): 7.42 ng/mL
AUC(0-∞) [4, 7]: 11647.87 ng·h/mL and 13703.99 ng·h/mL and 10300.28 ng·h/mL
CLz [4, 7]: 14.3 mL/min/kg and 12.2 mL/min/kg and 16.2 mL/min/kg
Cmax [4, 7]: 18669.25 ng/mL and 18416.30 ng/mL and 15043.60 ng/mL
MRT(0-∞) [4, 7]: 2.12 h and 2.44 h and 2.68 h
T1/2 [4, 7]: 3.25 h and 3.43 h and 3.38 h
Vz [4, 7]: 4.03 L/kg and 3.62 L/kg and 4.73 L/kg
AUC(0-t) [4, 7]: 11610.30 ng·h/mL and 13662.84 ng·h/mL and 10271.39 ng·h/mL
AUC(0-t) [4, 8]: 11848.18 ng·h/mL
AUC(0-∞) [4, 8]: 11884.05 ng·h/mL
CLz [4, 8]: 14.2 mL/min/kg
Cmax [4, 8]: 17376.38 ng/mL
MRT(0-∞) [4, 8]: 2.41 h
T1/2 [4, 8]: 3.35 h
Vz [4, 8]: 4.12 L/kg
MRT(0-∞) [4, 9]: 6.25 h and 6.38 h and 5.57 h
T1/2 [4, 9]: 3.03 h and 2.52 h and 3.72 h
Tmax [4, 9]: 4.00 h and 3.00 h and 3.33 h
MRT(0-∞) [4, 10]: 6.06 h
T1/2 [4, 10]: 3.09 h
Plasma Concentration ([4]; male Cynomolgus monkeys, PO 50 mg/kg, time point 1): 192.53 ng/mL and 186.66 ng/mL and 241.02 ng/mL
Plasma Concentration ([4]; male Cynomolgus monkeys, PO 50 mg/kg, time point 1, mean): 206.74 ng/mL
tumor growth inhibition (in words) [5]: effective tumor growth inhibition
Microsomal stability, % remaining ([6]; 0 min): 100.00%
Microsomal stability, % remaining ([6]; 5 min): 83.38%
Microsomal stability, % remaining ([6]; 10 min): 71.22%
Microsomal stability, % remaining ([6]; 15 min): 71.51%
Microsomal stability, % remaining ([6]; 30 min): 54.96%
Microsomal stability, % remaining ([6]; 45 min): 33.81%
Microsomal stability, % remaining ([6]; 60 min): 32.52%
microsomal stability (in words) ([6]; dog microsomes): metabolized fairly rapidly
